Measured values as given in ChEMBL document CHEMBL1201862, “PubChem BioAssay data set” (2004).
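Briefly, cells in 96-well plates were exposed to five compound concentrations for 48 h, and endpoints were estimated by linear interpolation. Abbreviation: GI50, concentration required for 50% inhibition of growth.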 The source made the active and inactive calls. No stated cut-off is given here; in the data, active = GI50 up to about 1.1 µM and inactive = higher.

Experiments:
Assay in all cases: NCI-60 cell line screen, 48 h
OVCAR-4 = tested on: OVCAR-4
RXF 393 = tested on: RXF 393
IGROV-1 = tested on: IGROV-1
SK-MEL-5 = tested on: SK-MEL-5
786-0 = tested on: 786-0
HT-29 = tested on: HT-29
LXFL 529 = tested on: LXFL 529
HOP-62 = tested on: HOP-62
ACHN = tested on: ACHN
KM-20L2 = tested on: KM-20L2
Malme-3M = tested on: Malme-3M
PC-3 = tested on: PC-3
MDA-MB-231 = tested on: MDA-MB-231
HOP-92 = tested on: HOP-92
SNB-78 = tested on: SNB-78
RXF 631 = tested on: RXF 631
MCF7 = tested on: MCF7
RPMI-8226 = tested on: RPMI-8226
NCI-H226 = tested on: NCI-H226
NCI-H460 = tested on: NCI-H460
SK-MEL-2 = tested on: SK-MEL-2
OVCAR-3 = tested on: OVCAR-3
Hs-578T = tested on: Hs-578T
UO-31 = tested on: UO-31
HL-60 = tested on: HL-60
EKVX = tested on: EKVX
SN12C = tested on: SN12C
HCC 2998 = tested on: HCC 2998
KM12 = tested on: KM12
BT-549 = tested on: BT-549
SW-620 = tested on: SW-620
MDA-MB-435 = tested on: MDA-MB-435
T47D = tested on: T47D
SNB-75 = tested on: SNB-75
SF-295 = tested on: SF-295
OVCAR-8 = tested on: OVCAR-8
UACC-62 = tested on: UACC-62
NCI/ADR-RES = tested on: NCI/ADR-RES
MOLT-4 = tested on: MOLT-4
CAKI-1 = tested on: CAKI-1
NCI-H23 = tested on: NCI-H23
K562 = tested on: K562
LOX IMVI = tested on: LOX IMVI
DU-145 = tested on: DU-145
SK-MEL-28 = tested on: SK-MEL-28
COLO 205 = tested on: COLO 205
A498 = tested on: A498
CCRF-CEM = tested on: CCRF-CEM
SR = tested on: SR
NCI-H522 = tested on: NCI-H522
DLD-1 = tested on: DLD-1
SK-OV-3 = tested on: SK-OV-3
SNB-19 = tested on: SNB-19
SF-268 = tested on: SF-268
OVCAR-5 = tested on: OVCAR-5
TK-10 = tested on: TK-10
SF-539 = tested on: SF-539
XF498 = tested on: XF498
A549 = tested on: A549
DMS-114 = tested on: DMS-114
MDA-N = tested on: MDA-N
M19-MEL = tested on: M19-MEL
HCT-116 = tested on: HCT-116
UACC-257 = tested on: UACC-257
DMS-273 = tested on: DMS-273
M14 = tested on: M14
HCT-15 = tested on: HCT-15
U-251 = tested on: U-251
HOP-18 = tested on: HOP-18

## CC[C@@]1(OC(=O)CCC(=O)O)C(=O)OCc2c1cc1n(c2=O)Cc2cc3ccccc3nc2-1
OVCAR-4
  GI50: 1460 nM (inactive)
RXF 393
  GI50: 257 nM (active)
IGROV-1
  GI50: 541 nM (active)
SK-MEL-5
  GI50: 127 nM (active)
786-0
  GI50: 26.3 nM (active)
HT-29
  GI50: 366 nM (active)
LXFL 529
  GI50: 2010 nM (inactive)
HOP-62
  GI50: 13.9 nM (active)
ACHN
  GI50: 20.8 nM (active)
KM-20L2
  GI50: 979 nM (active)
Malme-3M
  GI50: 467 nM (active)
PC-3
  GI50: 239 nM (active)
MDA-MB-231
  GI50: 3860 nM (inactive)
HOP-92
  GI50: 1290 nM (inactive)
SNB-78
  GI50: 2770 nM (inactive)
RXF 631
  GI50: 427 nM (active)
MCF7
  GI50: 28.7 nM (active)
RPMI-8226
  GI50: 193 nM (active)
NCI-H226
  GI50: 193 nM (active)
NCI-H460
  GI50: < 10 nM (active)
SK-MEL-2
  GI50: 1850 nM (inactive)
OVCAR-3
  GI50: 910 nM (active)
Hs-578T
  GI50: 14600 nM (inactive)
UO-31
  GI50: 58.3 nM (active)
HL-60
  GI50: 31.3 nM (active)
EKVX
  GI50: 1360 nM (inactive)
SN12C
  GI50: 33.3 nM (active)
HCC 2998
  GI50: 458 nM (active)
KM12
  GI50: 659 nM (active)
BT-549
  GI50: 484 nM (active)
SW-620
  GI50: 150 nM (active)
MDA-MB-435
  GI50: 435 nM (active)
T47D
  GI50: 65 nM (active)
SNB-75
  GI50: 104 nM (active)
SF-295
  GI50: 25.1 nM (active)
OVCAR-8
  GI50: 137 nM (active)
UACC-62
  GI50: 18.7 nM (active)
NCI/ADR-RES
  GI50: 38.3 nM (active)
MOLT-4
  GI50: < 10 nM (active)
CAKI-1
  GI50: 30.9 nM (active)
NCI-H23
  GI50: 44.2 nM (active)
K562
  GI50: 360 nM (active)
LOX IMVI
  GI50: 37.5 nM (active)
DU-145
  GI50: 27.1 nM (active)
SK-MEL-28
  GI50: 1230 nM (inactive)
COLO 205
  GI50: 692 nM (active)
A498
  GI50: 216 nM (active)
CCRF-CEM
  GI50: < 10 nM (active)
SR
  GI50: < 10 nM (active)
NCI-H522
  GI50: 103 nM (active)
DLD-1
  GI50: 1580 nM (inactive)
SK-OV-3
  GI50: 230 nM (active)
SNB-19
  GI50: 51.9 nM (active)
SF-268
  GI50: 39.5 nM (active)
OVCAR-5
  GI50: 363 nM (active)
TK-10
  GI50: 3650 nM (inactive)
SF-539
  GI50: 28.1 nM (active)
XF498
  GI50: 497 nM (active)
A549
  GI50: 77.3 nM (active)
DMS-114
  GI50: 46 nM (active)
MDA-N
  GI50: 1090 nM (active)
M19-MEL
  GI50: 239 nM (active)
HCT-116
  GI50: 104 nM (active)
UACC-257
  GI50: 254 nM (active)
DMS-273
  GI50: < 20.3 nM (active)
M14
  GI50: 55.6 nM (active)
HCT-15
  GI50: 472 nM
U-251
  GI50: 30.3 nM (active)
HOP-18
  GI50: 492 nM (active)
